{
  "source": "patent US7932241B2",
  "about": "“Pharmaceutical products comprising bisphosphonates” (Novartis AG, priority 2003, dated 2011)",
  "test": "physchem",
  "conditions": "pKa values",
  "protocol": "Each 800 g of this solution (equivalent to 50 mg of zoledronic acid) are titrated with • (a) a solution of 0.500 g/100 mL trisodium citrate dihydrate in water for injection • (b) a solution of 0.500 g/100 mL anhydrous sodium acetate in water for injection • (c) a solution of 0.500 g/100 mL disodium tartrate dihydrate in water for injection • (d) a solution of 0.500 g/100 mL trisodium phosphate hexahydrate in water for injection • (e) a solution of 0.400 g/100 mL sodium hydroxide in water for injection\nThe pH value after each addition of 200 μL of base solution is recorded potentiometrically.",
  "data": [
    {"smiles": "O=P(O)(O)C(O)(Cn1ccnc1)P(=O)(O)O", "note": "[zoledronic acid, 2-(imidazol-1yl)-1-hydroxyethane-1,1-diphosphonic acid]", "values": [
      {"measurement": "pKa", "value": 5.9}
    ]}
  ]
}
